Source: patent publication US9725459B2, “3-oxo-tetrahydro-furo[3,2-B]pyrrol-4(5H)-yl) derivatives I” (GRÜNENTHAL GMBH, priority 2014, dated 2017)
pKi: −log10 of the molar value.

Key:
Assay type in all cases: biochemical
human cathepsin K (CatK) = human cathepsin K (CatK) (Homo sapiens (Human), UniProt P43235); test: CatK functional enzyme assay; conditions: for pKi: recombinant human CatK, substrate Z-FR-AMC 40 μM, pH 5.5, Ki by Cheng Prusoff equation, read-out: hCatK, Ki
Procedure: (§1) Reference and test compounds were assayed for inhibitory potency (IC50) against human cathepsins using the following assay setups:
(§2) Recombinant human cathepsins (CatS, CatK, CatL) were purchased from a Enzo Life Sciences. All assays were carried out in 96-well format using a buffer of 50 mM KH2PO4, 50 mM NaCl, 2 mM EDTA, 0.5 mM DTT and 1% Triton-X-100, pH 6.5 for Cathepsin S and a buffer of 50 mM NaOAc, 10 mM EDTA, 1 mM DTT and 0.01% Triton-X-100, pH 5.5 for CatK/L/B. For CatS, the enzyme (0.0007 mU/well) was incubated with fluorogeninc substrate (Z-VVR-AMC, 5 μM) at RT for 10 min. For CatK the enzyme (0.00175 mU/well) was incubated with fluorogeninc substrate (Z-FR-AMC, 40 μM) at RT for 10 min. For CatL, the enzyme (0.000874 mU/well) was incubated with fluorogeninc substrate (Z-VVR-AMC, 40 μM) at RT for 10 min. Flourogenic substrate turnover was detected using a microplate reader (Synergy™ H4, BioTek). Ki values were calculated using the Cheng Prusoff equation (Cheng & Prosoff 1973).

human cathepsin L (CatL) = human cathepsin L (CatL) (Homo sapiens (Human), UniProt P07711); test: CatL functional enzyme assay; conditions: read-out: hCatL, inhibition [%] at 31.6 μM
Procedure: as §1, §2

human cathepsin S (CatS) = human cathepsin S (CatS) (Homo sapiens (Human), UniProt P25774); test: CatS functional enzyme assay; conditions: for Selectivity Ki(hCatS)/Ki(hCatK): ratio Ki(hCatS)/Ki(hCatK); for pKi: recombinant human CatS, substrate Z-VVR-AMC 5 μM, pH 6.5, Ki by Cheng Prusoff equation, read-out: hCatS, Ki; for inhibition at 10 µM: read-out: hCatS, inhibition [%] at 10 μM
Procedure: as §2, with “Reference and test compounds were assayed for inhibitory potency (IC50) against human cathepsins using the following assay setups: Recombinant” for “Recombinant”, “All assays were carried out in 96-well format using a buffer of 50 mM KH2PO4, 50 mM NaCl, 2 mM EDTA, 0.5 mM DTT and 1% Triton-X-100, pH 6.5 for Cathepsin S and a buffer of 50 mM NaOAc, 10 mM EDTA, 1 mM DTT and 0.01% Triton-X-100, pH 5.5 for CatK/L/B.” left out

human cathepsin K (CatK), sequence (P43235 115-329): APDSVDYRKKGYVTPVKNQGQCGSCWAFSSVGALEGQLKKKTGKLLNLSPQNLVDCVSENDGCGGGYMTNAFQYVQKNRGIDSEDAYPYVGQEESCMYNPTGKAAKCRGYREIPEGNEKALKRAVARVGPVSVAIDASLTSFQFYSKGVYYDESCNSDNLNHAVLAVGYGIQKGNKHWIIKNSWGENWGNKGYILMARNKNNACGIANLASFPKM
human cathepsin L (CatL), sequence (P07711 114-333): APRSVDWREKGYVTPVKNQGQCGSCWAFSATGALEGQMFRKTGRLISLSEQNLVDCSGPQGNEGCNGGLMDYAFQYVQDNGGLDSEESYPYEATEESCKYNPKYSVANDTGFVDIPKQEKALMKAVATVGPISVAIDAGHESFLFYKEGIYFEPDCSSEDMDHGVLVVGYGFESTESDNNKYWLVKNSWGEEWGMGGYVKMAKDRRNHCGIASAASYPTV
human cathepsin S (CatS), sequence (P25774 115-331): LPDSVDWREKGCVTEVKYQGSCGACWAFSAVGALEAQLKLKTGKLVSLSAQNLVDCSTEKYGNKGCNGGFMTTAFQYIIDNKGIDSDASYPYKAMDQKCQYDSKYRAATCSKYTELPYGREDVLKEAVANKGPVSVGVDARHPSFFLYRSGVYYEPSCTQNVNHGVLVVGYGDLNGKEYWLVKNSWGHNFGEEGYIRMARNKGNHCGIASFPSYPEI

pKi (human cathepsin K (CatK)) | inhibition at 31.6 µM (human cathepsin L (CatL)) [%] | Selectivity Ki(hCatS)/Ki(hCatK) (human cathepsin S (CatS)) | pKi (human cathepsin S (CatS)) | inhibition at 10 µM (human cathepsin S (CatS)) [%] | inhibition at 10 µM (human cathepsin K (CatK); read-out: hCatK, inhibition [%] at 10 μM) [%] | Structure (SMILES)
7.80 | 9 | 21.7 | 6.46 |  |  | O=C(N[C@H](C(=O)N1C[C@H](Cl)[C@H]2OCC(=O)[C@H]21)C1CCCCC1)c1ccc(-c2ccc(Cl)nc2)s1 [Example 17, N-((S)-2-((3aS,6S,6aS)-6-chloro-3-oxotetrahydro-2H-furo[3,2-b]pyrrol-4(5H)-yl)-1-cyclohexyl-2-oxoethyl)-5-(6-chloropyridin-3-yl)thiophene-2-carboxamide]
7.51 | 15 | 1.2 | 7.43 |  |  | O=C(N[C@H](C(=O)N1C[C@H](Cl)[C@H]2OCC(=O)[C@H]21)C1CCCCC1)c1ncc(-c2ccnnc2)s1 [Example 18, N-((S)-2-((3aS,6S,6aS)-6-chloro-3-oxotetrahydro-2H-furo[3,2-b]pyrrol-4(5H)-yl)-1-cyclohexyl-2-oxoethyl)-5-(pyridazin-4-yl)thiazole-2-carboxamide]
7.03 | 12 | 0.8 | 7.13 |  |  | O=C(N[C@H](C(=O)N1C[C@H](Cl)[C@H]2OCC(=O)[C@H]21)C1CCCCC1)c1ccc(-c2ccnnc2)o1 [Example 19, N-((S)-2-((3aS,6S,6aS)-6-chloro-3-oxotetrahydro-2H-furo[3,2-b]pyrrol-4(5H)-yl)-1-cyclohexyl-2-oxoethyl)-5-(pyridazin-4-yl)furan-2-carboxamide]
7.43 | 17 |  |  | 73 |  | Cc1nc(-c2cnccn2)sc1C(=O)N[C@H](C(=O)N1C[C@H](Cl)[C@H]2OCC(=O)[C@H]21)C1CCCCC1 [Example 22, N-((S)-2-((3aS,6S,6aS)-6-chloro-3-oxotetrahydro-2H-furo[3,2-b]pyrrol-4(5H)-yl)-1-cyclohexyl-2-oxoethyl)-4-methyl-2-(pyrazin-2-yl)thiazole-5-carboxamide]
 | 0 |  |  | 60 | 52 | O=C(N[C@H](C(=O)N1C[C@H](Cl)[C@H]2OCC(=O)[C@H]21)C1CCCCC1)c1sc(-c2cccnc2)nc1C(F)(F)F [Example 23, N-((S)-2-((3aS,6S,6aS)-6-chloro-3-oxotetrahydro-2H-furo[3,2-b]pyrrol-4(5H)-yl)-1-cyclohexyl-2-oxoethyl)-2-(pyridin-3-yl)-4-(trifluoromethyl)thiazole-5-carboxamide]
7.66 | 10 | 2.8 | 7.21 |  |  | O=C(N[C@H](C(=O)N1C[C@H](Cl)[C@H]2OCC(=O)[C@H]21)C1CCCCC1)c1ncc(-c2cncnc2)s1 [Example 24, N-((S)-2-((3aS,6S,6aS)-6-chloro-3-oxotetrahydro-2H-furo[3,2-b]pyrrol-4(5H)-yl)-1-cyclohexyl-2-oxoethyl)-5-(pyrimidin-5-yl)thiazole-2-carboxamide]
6.82 | 20 | 5.4 | 6.08 |  |  | O=C(N[C@H](C(=O)N1C[C@H](Cl)[C@H]2OCC(=O)[C@H]21)C1CCCCC1)c1ccc(-c2cnccn2)o1 [Example 25, N-((S)-2-((3aS,6S,6aS)-6-chloro-3-oxotetrahydro-2H-furo[3,2-b]pyrrol-4(5H)-yl)-1-cyclohexyl-2-oxoethyl)-5-(pyrazin-2-yl)furan-2-carboxamide]

Structure (SMILES) | pKi (human cathepsin K (CatK)) | inhibition at 31.6 µM (human cathepsin L (CatL)) [%] | Selectivity Ki(hCatS)/Ki(hCatK) (human cathepsin S (CatS)) | pKi (human cathepsin S (CatS)) | inhibition at 10 µM (human cathepsin S (CatS)) [%] | inhibition at 10 µM (human cathepsin K (CatK); read-out: hCatK, inhibition [%] at 10 μM) [%]
O=C(N[C@H](C(=O)N1C[C@H](Cl)[C@H]2OCC(=O)[C@H]21)C1CCCCC1)c1ccc(-c2cccnn2)o1 [Example 20, N-((S)-2-((3aS,6S,6aS)-6-chloro-3-oxotetrahydro-2H-furo[3,2-b]pyrrol-4(5H)-yl)-1-cyclohexyl-2-oxoethyl)-5-(pyridazin-3-yl)furan-2-carboxamide] | 6.65 | 16 | 3.2 | 6.14 |  | 
